Reference: patent publication US20140179681A1, “METHODS AND COMPOSITIONS OF TARGETED DRUG DEVELOPMENT” (priority 2010, published 2014)
Where a name gives a salt, the structure may show the parent alone. Read-outs that look alike come from different tables or passages of the source. Each block holds one molecule with its values, some of them ahead of it.

Experiments:
[1] = biological target: T1, EGFR (Homo sapiens, UniProt P00533); assay: EGFR in-cell Western (ICW) screening protocol (EGFR inhibition assay); format: cell-based; set-up: ICW 1 / ICW 2 / ICW Avg: unit not given here; settings: for ICW assay: Table 10; for ICW Avg / ICW 1 / ICW 2: ICW assay; for ICW Avg: average of runs 1 and 2; for ICW 1: run 1; for ICW 2: run 2
T1 construct: host or cells: A431
How it was run: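 In-cell Western read-out: fixed A431 cells were co-stained for total EGFR and phospho-EGFR (Tyr1173; some runs Tyr1045). Before fixation, cells were serum-starved for 2 h, exposed to compound for 4 h, then given EGF for 10 min, usually at 10 ng/ml final (6.6 or 12.5 ng/ml in some runs).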

[2] = system: epithelial carcinoma A431 cell line; assay: MTT Cell Proliferation Assay, A431 cells; format: cell-based; settings: for MTT Assay IC50(A431/MDBK): ratio in parentheses: ratio MDBK IC50 / A431 IC50 (selectivity)
How it was run: (§1)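 Each concentration ran in quadruplicate across duplicate plates, with compounds serially diluted in DMSO and delivered at 0.5% DMSO in 0.5% FBS medium for 3 days.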

[3] = system: MDBK line; assay: MTT Cell Proliferation Assay, MDBK cells; format: cell-based, bovine
How it was run: as §1

[4] = Homo sapiens, A-431, first value of 'a/b (c)', taken as A431 cells, read-out: MTT Screen, first value of cell
[5] = Bos taurus, MDBK, second value of 'a/b (c)', taken as MDBK cells, read-out: MTT Screen, second value of cell
[6] = % Inhibition of EGF dependent EGFR phosphorylation in A431 cells, compound 125 μM in assay
[7] = Homo sapiens, A-431, 72 h, Table 10, first of x/y(ratio): A431, three day treatment, unit not printed (doses in μM), read-out: MTT assay (first value)
[8] = Bos taurus, MDBK, 72 h, Table 10, second of x/y(ratio): MDBK, three day treatment, unit not printed (doses in μM), read-out: MTT assay (second value)
[9] = Homo sapiens, A-431, A431 cells, first value of cell, read-out: MTT Assay IC50(A431/MDBK): A431
[10] = Bos taurus, MDBK, MDBK cells, second value of cell, read-out: MTT Assay IC50(A431/MDBK): MDBK
[11] = first value of 'a/b (c)', taken as A431 cells, read-out: MTT Screen, first value of cell
[12] = second value of 'a/b (c)', taken as MDBK cells, read-out: MTT Screen, second value of cell

T1 sequence (P00533 25-1210): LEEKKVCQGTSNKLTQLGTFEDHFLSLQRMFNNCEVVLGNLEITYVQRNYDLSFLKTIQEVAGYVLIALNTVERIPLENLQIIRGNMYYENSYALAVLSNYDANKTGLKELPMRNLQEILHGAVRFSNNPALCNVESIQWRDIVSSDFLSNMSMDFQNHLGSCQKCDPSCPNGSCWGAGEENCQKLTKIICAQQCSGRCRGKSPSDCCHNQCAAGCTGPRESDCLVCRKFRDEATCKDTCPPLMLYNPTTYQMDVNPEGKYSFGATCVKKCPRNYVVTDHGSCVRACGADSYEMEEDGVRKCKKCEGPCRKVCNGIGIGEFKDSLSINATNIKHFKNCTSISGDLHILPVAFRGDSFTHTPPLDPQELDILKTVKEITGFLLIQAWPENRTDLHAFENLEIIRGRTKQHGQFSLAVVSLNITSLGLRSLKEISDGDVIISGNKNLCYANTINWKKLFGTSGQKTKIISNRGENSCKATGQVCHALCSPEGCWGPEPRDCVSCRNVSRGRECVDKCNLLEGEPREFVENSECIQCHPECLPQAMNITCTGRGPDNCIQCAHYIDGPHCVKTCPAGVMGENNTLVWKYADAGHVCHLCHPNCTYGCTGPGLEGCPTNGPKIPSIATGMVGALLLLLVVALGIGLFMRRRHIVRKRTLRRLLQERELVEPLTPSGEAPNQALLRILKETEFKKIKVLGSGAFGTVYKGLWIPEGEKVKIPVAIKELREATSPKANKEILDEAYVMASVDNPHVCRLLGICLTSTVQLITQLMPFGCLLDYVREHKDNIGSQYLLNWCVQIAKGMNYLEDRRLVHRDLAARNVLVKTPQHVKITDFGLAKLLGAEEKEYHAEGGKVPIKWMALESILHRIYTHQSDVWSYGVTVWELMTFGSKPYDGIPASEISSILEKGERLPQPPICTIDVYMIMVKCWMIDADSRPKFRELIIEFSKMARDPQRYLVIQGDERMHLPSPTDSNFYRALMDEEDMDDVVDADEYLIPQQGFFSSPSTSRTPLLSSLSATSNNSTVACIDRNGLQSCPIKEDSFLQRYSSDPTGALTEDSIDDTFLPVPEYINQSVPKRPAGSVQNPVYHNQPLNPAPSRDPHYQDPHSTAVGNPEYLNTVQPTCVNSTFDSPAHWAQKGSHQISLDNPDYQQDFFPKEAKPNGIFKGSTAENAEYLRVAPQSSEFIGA

ICW Screen (ICW Inhibition) [1]: 34.08
IC50 [2, 4]: 63.3 µM
SMILES: COc1cc(NS(=O)(=O)c2ccc(NC(=S)NC(=O)/C=C/c3cccs3)cc2)nc(OC)n1 [AD4-11881]
IC50 [3, 5]: 46.5 µM

ICW assay [1, 6]: 46.4407
IC50 [2, 7]: 37 µM
SMILES: Cc1ccc(Cl)cc1NC(=S)Nc1ccc(S(=O)(=O)N2c3ccc(F)cc3CCC2C)cc1 (centres unmarked) [AD4-12829]
IC50 [3, 8]: 37.3 µM

ICW Screen ([1]; Table 11, % Inhibition of EGF dependent EGFR phosphorylation in A431 cells, compound 125 μM in assay): 46.398
IC50 ([2]; Homo sapiens, A-431, Table 11, first of x/y(ratio): A431, unit not printed (doses in μM), read-out: MTT Screen (first value)): 5.2 µM
SMILES: O=c1cc(CN2CCN(C(c3ccccc3)c3ccccc3)CC2)c2ccc(O)c(O)c2o1 [AD4-10633]
MTT Follow-up (first value) ([2]; Table 11, first of x/y(ratio): A431, unit not given): Not Convergent
MTT Screen (second value) ([3]; Table 11, second of x/y(ratio): MDBK, unit not printed (doses in μM)): non- convergent

ICW Screen (ICW Inhibition) [1]: 30.841
IC50 [2, 4]: 11.7 µM
SMILES: CCCC(=O)NC(=S)Nc1ccc(S(=O)(=O)NCCc2ccccc2)cc1 [AD4-10612]
IC50 [3, 5]: 13.2 µM

ICW Avg [1]: 25.51
ICW 1 [1]: 25.87
ICW 2 [1]: 25.14
IC50 [2, 9]: 9.88 µM
MTT Assay IC50(A431/MDBK): ratio in parentheses [2]: 0.64
SMILES: Cc1ccc2nc(Nc3nc(CSc4ncccn4)cc(=O)[nH]3)nc(C)c2c1 [compound 11751]
IC50 [3, 10]: 6.31 µM

ICW Avg [1]: 37.09
ICW 1 [1]: 40.96
ICW 2 [1]: 33.21
MTT Assay IC50(A431/MDBK): A431 ([2]; A431 cells, first value of cell): non-convergent
IC50 ([2]; Homo sapiens, A-431, follow-up MTT, A431 cells, first value, read-out: MTT Follow-up: A431): 14.1 µM
SMILES: CCOc1cccc2c(C)nc(Nc3nc(CSc4ccc(C)cc4)cc(=O)[nH]3)nc12 [compound 11755]
MTT Follow-up: ratio in parentheses ([2]; follow-up MTT, ratio MDBK/A431): 0.23
IC50 ([3]; Bos taurus, MDBK, follow-up MTT, MDBK cells, second value, read-out: MTT Follow-up: MDBK): 3.24 µM

ICW Avg [1]: 64.72
ICW 1 [1]: 69.46
ICW 2 [1]: 59.98
IC50 [2, 9]: 17.9 µM
MTT Assay IC50(A431/MDBK): ratio in parentheses [2]: 0.85
SMILES: CCOc1cccc2c(C)nc(Nc3nc(C)c(C)c(=O)[nH]3)nc12 [12735 + TFA]
IC50 [3, 10]: 15.3 µM

ICW Avg [1]: 27.21
ICW 1 [1]: 20.34
ICW 2 [1]: 34.09
IC50 [2, 9]: 19.4 µM
MTT Assay IC50(A431/MDBK): ratio in parentheses [2]: 0.39
SMILES: CCCc1c(C)nc(Nc2nc(C)c3cc(C)c(C)cc3n2)[nH]c1=O [12614 + TFA]
IC50 [3, 10]: 7.56 µM

ICW Screen (ICW Inhibition) [1]: 40.346
IC50 [2, 4]: 62.5 µM
SMILES: CC(C)C(=O)NC(=S)Nc1ccc(S(=O)(=O)NC2CCCCC2)cc1 [AD4-11985]
IC50 [3, 5]: 39.9 µM

ICW assay [1, 6]: 26.8206
IC50 [2, 7]: 48.2 µM
SMILES: CC(=O)c1cccc(NC(=S)Nc2ccc(NS(=O)(=O)c3ccc(C)cc3)cc2)c1 [AD4-10693]
IC50 [3, 8]: 35.9 µM

ICW Avg [1]: 57.18
ICW 1 [1]: 40.36
ICW 2 [1]: 74.00
IC50 [2, 9]: 9.01 µM
MTT Assay IC50(A431/MDBK): ratio in parentheses [2]: 0.76
SMILES: Cc1ccc2c(O)nc(Nc3nc(C)cc(-c4ccccc4)n3)nc2c1 [12693 + TFA]
IC50 [3, 10]: 6.88 µM

ICW Screen (ICW Inhibition) [1]: 34.379
IC50 [2, 4]: 18 µM
SMILES: COc1ccc(NS(=O)(=O)c2ccc(NC(=S)NC(=O)COc3ccc(Cl)cc3C)cc2)cc1 [AD4-12196]
IC50 [3, 5]: 36.8 µM

ICW Screen (ICW Inhibition) [1]: 42.36
IC50 [2, 11]: 40 µM
SMILES: Cc1ccc(NS(=O)(=O)c2ccc(NC(=S)NC(=O)C3CCC3)cc2)cc1C [AD4-12175]
IC50 [3, 12]: 9.56 µM

ICW Screen (ICW Inhibition) [1]: 40.146
IC50 [2, 11]: 42.9 µM
SMILES: COc1cc(NS(=O)(=O)c2ccc(NC(=S)NC(=O)/C=C/c3ccccc3)cc2)nc(OC)n1 [AD4-12262]
IC50 [3, 12]: 43.4 µM

ICW Avg [1]: 34.91
ICW 1 [1]: 42.29
ICW 2 [1]: 27.52
IC50 [2, 9]: 32.4 µM
MTT Assay IC50(A431/MDBK): ratio in parentheses [2]: 1.40
SMILES: CCCCCC1C(=O)N=C(Nc2nc(C)c3ccc(CC)cc3n2)N=C1C (centres unmarked) [12214 + TFA]
IC50 [3, 10]: 45.5 µM

ICW assay [1, 6]: 116.579
IC50 [2, 7]: 6.15 µM
SMILES: O=S(=O)(Nc1ccccc1)c1ccc(NC(=S)Nc2cccc(C(F)(F)F)c2)cc1 [AD4-12835]
IC50 [3, 8]: 5.89 µM

ICW assay [1, 6]: 37.4191
IC50 [2, 7]: 11.1 µM
SMILES: CC(=O)c1cccc(NC(=S)Nc2ccc(S(=O)(=O)Nc3c(C)cc(C)cc3C)cc2)c1 [AD4-12391]
IC50 [3, 8]: 9.09 µM

ICW Screen (ICW Inhibition) [1]: 31.36
IC50 [2, 4]: 15.6 µM
SMILES: CC1CCN(S(=O)(=O)c2ccc(NC(=S)NC(=O)CCC(=O)OCCc3ccccc3)cc2)CC1 [AD4-12153]
IC50 [3, 5]: 21.8 µM
